Source: patent publication US20250206789A1, “ZINC FINGER DEGRON SEQUENCES” (STICHTING HET NEDERLANDS KANKER INSTITUUT-ANTONI VAN …, priority 2022, published 2025)

Columns and labels:
[1] = tested on: multiple myeloma patients; conditions: high-dose (25 mg per day) cohort; cited from earlier work
Primary human T cells = experiment: Cytokine production and degranulation of CDK4 TCR T cells with Zap70-PD1-degron CRASH-IT switch co-cultured with NKIRTIL006 melanoma cells, thalidomide titration; format: cell-based; conditions: as compared to single hybrid, dual zinc finger prior art degron; IFNγ, IL2, TNFα, LAMP-1
Text: FIG. 1: Sensitivity of zinc finger degrons to IMiD can be improved by alteration of the second zinc finger sequence. (A) Schematic representation of a panel of zinc finger degrons containing the ZFP91 ZF4 beta hairpin and IKZF1 ZF2 alpha helix as a hybrid first zinc finger. […] (B-E) Primary human T cells modified with the HLA class I restricted CDK4 TCR plus a Zap70-PD1-degron CRASH-IT switch, in which the degron sequence is selected from (A), were pretreated with indicated concentrations of thalidomide. Data depict intracellular IFNγ, IL2, TNFα, and cell surface LAMP1 expression of CDK4 TCR+, EGFP high, CD8+ T cells upon co-culture with NKIRTIL006 melanoma cells in the continued presence of indicated concentrations of thalidomide. Error bars represent standard deviation (n=2). Data are representative of two independent experiments.
To our knowledge, the possibility of using a hybrid zinc finger as the second zinc finger as a means to improve the overall sensitivity of the dual zinc finger degron system was not tested before. To investigate whether the second zinc finger (IKZF1 ZF3) of the single hybrid, dual zinc finger prior art degron can be replaced with other zinc finger sequences while preserving or improving sensitivity towards IMiDs, we created a panel of CRASH-IT switches containing the zinc finger degrons shown in FIG. 1. […]

Jurkat cells = experiment: SynFinger library screen: CD69 expression of CRASH-IT (Zap70-PD1-degron) transduced Jurkat cells with or without lenalidomide, enrichment index from NGS reads; format: cell-based; conditions: Jurkat cells expressing CRASH-IT switch, 50 nM lenalidomide
Text: […] Jurkat cells were transduced with the SynFinger library (SynFinger containing CRASH-IT switches) at a 12.8% transduction efficiency and sorted for high EGFP expression to enrich transduced cells. For quality control of the SynFinger transduced Jurkat cells, SynFinger sequences were amplified and analyzed by NGS. 10 randomly selected SynFinger encoding DNA sequences or DNA sequences encoding the same SynFinger amino acid sequences but contain 2 nucleotide mismatches due to alternative codon usage were used to assess ability to distinguish true SynFinger sequences from noise in the NGS data. 10/10 SynFinger encoding full-nucleotide sequence match sequences were observed within NGS data whereas the 2 nucleotide mismatch containing sequences were not detected.
Jurkat cells expressing the SynFinger library were treated with 50 nM lenalidomide (a suboptimal dose that activates only ˜50% of cells expressing a CRASH-IT switch containing the parental double hybrid degron in Jurkat cells, as compared to a maximally effective 1000 nM lenalidomide dose) or were mock treated for 24 hours, and subsequently activated with anti-CD3/anti-CD28 antibodies in the presence or absence of 50 nM lenalidomide for 5 hours. Afterwards, cells were stained with IR dye (1:400) and anti-CD69-PE (1:200). Cells were sorted for live (IR dye negative), EGFP high end CD69 high (top 5%) or CD69 low (bottom 5%) expression using Aria Fusion cytometers.
Subsequently, cells were washed with PBS, and cell pellets were frozen at −20° C. until DNA extraction. Genomic DNA was isolated using the DNeasy Blood & Tissue Kit (Qiagen) according to the manufacturer's instructions, using 5×10^6 cells per column. DNA was eluted in 22 μl RNAse free water. Deep sequencing adapters and indexes were added to SynFinger encoding DNA sequences using PCR amplification. Briefly, 3 μg genomic DNA (20 μl), indexed forward and reverse primers (10 μM, 2.5 μl each) and 25 μl NEBNext® High-Fidelity 2×PCR Master Mix were added to the PCR reaction. An optimized PCR reaction (98° C. for 30 s, (98° C. for 10 s, 56° C. for 10 s, 72° C. for 5 s)×25 cycles, 72° C. for 3 min was performed using Eppendorf PCR cyclers.
Indexed PCR products were run on agarose gel, relative DNA concentrations were estimated by measuring band intensity, and 12 indexed PCR reaction products were mixed per MiSeq chip. To increase sequence diversity, samples were mixed with 25% PhiX DNA. In total, 2 MiSeq chips were used (100 bp, single read). To distinguish genuine SynFinger sequences from sequencing errors, results were filtered using a reference list of actual sequences used in SynFinger library design (100% codon match). Sequences with a very low number of reads (sum of all samples below 500 reads) were excluded from analysis.
To identify SynFingers that improve sensitivity of CRASH-IT switches towards lenalidomide while preserving or improving stringency of switch mediated control of T cell activation in the absence of lenalidomide, an enrichment index (EI) value was calculated for each sequence as described below, and SynFingers were ranked according to their EI, with a low EI indicating a SynFinger with desired properties.
CD69-HI and […] read counts from top 100 SynFingers were compared with read counts from the parental double hybrid degron using a two-sided Fisher's exact test to determine enrichment of CD69-HI cells in the presence of lenalidomide and enrichment of CD69-LO cells in the absence of lenalidomide.
To further improve the sensitivity of double hybrid degron towards IMiDs, we performed a high throughput screen using a library of ˜50,200 CRASH-IT variants that encode either single or double amino acid substitutions at the indicated positions of the first hybrid zinc finger sequence, thereby changing 18 amino acids of this zinc finger into any amino acid except cysteine (FIG. 3). […]

[2] = target: IMID/CRBN E3 ligase complex (Homo sapiens, UniProt Q96SW2); conditions: as compared to non-hybrid ZFP91 ZF4 and IKZF1 ZF2 zinc finger degrons; cited from earlier work
Chain of IMID/CRBN E3 ligase complex (Q96SW2 whole entry, one chain of several): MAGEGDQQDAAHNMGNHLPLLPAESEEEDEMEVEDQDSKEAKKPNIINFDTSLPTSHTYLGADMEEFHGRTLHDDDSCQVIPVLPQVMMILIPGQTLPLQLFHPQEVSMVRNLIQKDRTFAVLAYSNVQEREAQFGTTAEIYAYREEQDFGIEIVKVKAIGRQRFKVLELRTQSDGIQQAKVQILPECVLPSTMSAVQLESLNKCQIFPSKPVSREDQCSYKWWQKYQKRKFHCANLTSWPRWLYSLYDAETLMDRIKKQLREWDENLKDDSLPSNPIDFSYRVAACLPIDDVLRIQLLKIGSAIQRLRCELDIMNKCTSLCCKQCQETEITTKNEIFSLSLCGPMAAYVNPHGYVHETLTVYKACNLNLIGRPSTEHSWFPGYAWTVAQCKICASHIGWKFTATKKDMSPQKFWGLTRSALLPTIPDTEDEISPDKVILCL

Molecule	toxicity in maintenance therapy [1]	sensitivity of the CRASH-IT switch towards thalidomide (Primary human T cells)	cells activated at 50 nM lenalidomide as compared to maximally effective 1000 nM lenalidomide dose (Jurkat cells)	sensitivity towards IMiD induced degradation [2]
Nc1cccc2c1CN(C1CCC(=O)NC1=O)C2=O (centres unmarked) [lenalidomide]	dose reductions due to toxicity, in particular neutropenia, were frequent	–	–	–
LQCEICGFTCRQKGNLLRHIKLHSGEKPFKCHLCNYACRRKDSVVAHKAKSH [double hybrid degron, ZFP91 ZF4 beta hairpin-IKZF1 ZF2 alpha helix plus IKZF1 ZF3 beta hairpin-ZFP91 ZF5 alpha helix]	–	improved the sensitivity	~50%	–
LQCEICGFTCRQKGNLLRHIKLH [single hybrid, single zinc finger degron, ZFP91 ZF4 beta hairpin-IKZF1 ZF2 alpha helix, no second zinc finger, reference compound]	–	reduced thalidomide sensitivity	–	increase sensitivity
